Test results: patent publication US20090124587A1, “METHODS FOR TREATING CANCER USING 17alpha-HYDROXYLASE/C17,20-LYASE INHIBITORS” (priority 2007, published 2009)
Like-named read-outs stand apart in the source and are kept apart here.

Assay: Pharmacokinetic study of abiraterone in hormone refractory prostate cancer patients, oral doses 250-2000 mg/day, fasted
Assay type: in vivo, human
Conditions: mean, fasted, plasma; for AUC(0-t) / Cmax / Tmax / AUC(0-inf): male, human; for AUC(0-inf): read-out: AUCINF_obs
Experimental: A group of 15 subjects was divided into five groups. Members of each group were orally administered doses of 250 mg/day, 500 mg/day, 750 mg/day, 1000 mg/day or 2000 mg/day once a day. Before administration the subjects had fasted. PK blood samples were measured at 1, 2, 4, 6, 8, 24, and 72 hours post dose.
To measure the amount of abiraterone and abiraterone acetate in the samples, these compounds were extracted from 100 uL human plasma using solid phase extraction (SPE) with cation mixed-mode polymer cartridges. Extracts were evaporated to dryness before reconstitution and analysis. Chromatography was carried out using a Luna™ C5 column (5 μm, 50 mm×2.1 mm id) with a gradient mobile phase consisting of 10 mM ammonium acetate and 2% propan-2-ol in acetonitrile. The flow rate was 0.2 mL/min and the run time 10.5 minutes. Abiraterone and abiraterone acetate were ionized using the electrospray interface in positive ion mode. Detection of analytes was via tandem mass spectrometry (MS/MS) in the multiple reaction monitoring (MRM) mode.
PK modeling was conducted using a non-compartmental model, extra vascular input for plasma with WinNonLin Software®. Pharmacokinetic parameters estimated in the model include: […]

[1] = 250 mg/day abiraterone acetate oral
[2] = 500 mg/day abiraterone acetate oral
[3] = 750 mg/day abiraterone acetate oral
[4] = 1000 mg/day abiraterone acetate oral
[5] = 2000 mg/day abiraterone acetate oral

An AUC(0-t) [1] of 1.25 µM·h, a Cmax [1] of 219 nM and a Tmax [1] of 2.05 h were found for C[C@]12CC[C@H](O)CC1=CC[C@@H]1[C@@H]2CC[C@]2(C)C(c3cccnc3)=CC[C@@H]12 [Abiraterone] in this work. For the same compound, the AUC(0-inf) [1] was 1.37 µM·h, the AUC(0-t) [2] was 1.33 µM·h and the Cmax [2] was 284 nM. For the same compound, the Tmax [2] was 2.59 h, the AUC(0-inf) [2] was 1.45 µM·h and the AUC(0-t) [3] was 4.29 µM·h. For the same compound, the Cmax [3] was 1030 nM, the Tmax [3] was 1.71 h and the AUC(0-inf) [3] was 4.54 µM·h. The AUC(0-t) [4] was 5.03 µM·h, the Cmax [4] was 659 nM and the Tmax [4] was 3.09 h. It also gave an AUC(0-inf) [4] of 5.32 µM·h, an AUC(0-t) [5] of 4.75 µM·h and a Cmax [5] of 531 nM. The Tmax [5] was 2.67 h, the AUC(0-inf) [5] was 4.98 µM·h and the Cl_F_obs [1] was 567.2 L/h. For the same compound, the HL_Lambda_z [1] was 11.6 h, the Vz_F_obs [1] was 10772.0 L and the Cl_F_obs [2] was 1347.2 L/h. For the same compound, the HL_Lambda_z [2] was 9.5 h, the Vz_F_obs [2] was 14032.5 L and the Cl_F_obs [3] was 494 L/h. It also gave an HL_Lambda_z [3] of 10.8 h, a Vz_F_obs [3] of 8340 L and a Cl_F_obs [4] of 861.6 L/h. The HL_Lambda_z [4] was 9.9 h, the Vz_F_obs [4] was 10125.5 L and the Cl_F_obs [5] was 1280.3 L/h. For the same compound, the HL_Lambda_z [5] was 12.0 h and the Vz_F_obs [5] was 21598.8 L.
